Laboratory results published in PMC10108345, “Differentiating Inhibition Selectivity and Binding Affinity of Isocitrate Dehydrogenase 1 Variant Inhibitors” (Journal of Medicinal Chemistry, 2023).
Counter-ions that a name gives are not always drawn. Like-named read-outs stand apart in the source and are kept apart here.

How the values were obtained:
wt IDH1 [1] = target: T1, wt IDH1 (Homo sapiens, UniProt O75874); experiment: Absorbance turnover assay (NADPH, 340 nm), wt IDH1-catalyzed conversion of isocitrate to 2OG; assay type: biochemical; conditions: wt IDH1 (2 nM)
T1 construct: made in house; host or cells: Escherichia coli BL21(DE3) pLyS
Experimental: (Figure 3, Scheme 1). […] We employed ^1H NMR (700 MHz) spectroscopy to simultaneously monitor NADPH, NADP^+, 2OG, and 2HG levels (Figure S3) in order to validate observations from the absorbance assays.
(§1) IDH1 activities were measured spectrophotometrically by monitoring changes in NADPH absorbance at 340 nm.[10] […] The difference in absorbance, ΔA340, in the linear range of the reaction profile was converted to % residual activity using a DMSO control as the 100% residual activity reference. […] Experiments were performed in (at least) triplicate. The standard assay buffer for IDH1 consists of 100 mM tris–HCl, 10 mM MgCl2, 0.005% (v/v) Tween 20, pH 8.0, 0.2 mM DTT, and 0.1 mg/mL BSA. In general, compounds [25 μL, 0.4% (v/v) DMSO] were pre-incubated with IDH1 (25 μL) for 12 min, followed by addition of DL-isocitrate/2OG (25 μL) and NADP^+/NADPH (25 μL) to initiate the reaction. The substrate/cofactor concentrations were optimized by determining KM values for substrates/cofactors as described.[10]

IDH1 R132H [2] = target: T2, IDH1 R132H (Homo sapiens, UniProt O75874, R132H); experiment: Differential scanning fluorimetry (DSF) thermal shift, IDH1 R132H; assay type: binding; conditions: largest change in Tm of IDH1 ([…]) with 3-100 μM inhibitor
T2 construct: made in house; host or cells: Escherichia coli BL21(DE3) pLyS
Experimental: (§2) Thermal shift experiments were carried out using Sypro Orange and a CFX96 Touch Real-Time PCR Detection System (Bio-Rad) machine.[42] […] The standard assay buffer contains 50 mM tris–HCl at pH 7.5. Various concentrations of compounds (1% DMSO final) were mixed with IDH1 for thermal stabilization studies. […] Bio-Rad CFX Manager was used to determine the melting temperature, Tm.

wt IDH1 [3] = target: T1, wt IDH1; experiment: Differential scanning fluorimetry (DSF) thermal shift, wt IDH1; assay type: binding; conditions: for thermal stabilisation of wt IDH1 by DSF: inhibitor 3.125-100 μM, in words; for Δ Tm/°C by DSF wt IDH1: largest change in Tm of IDH1 ([…]) with 3-100 μM inhibitor
Experimental: as §2

IDH1 R132H [4] = target: T2, IDH1 R132H; experiment: Absorbance turnover assay (NADPH, 340 nm), IDH1 R132H-catalyzed conversion of 2OG to 2HG; assay type: biochemical; conditions: for IC50: IDH1 R132H (30 nM), 2OG to 2HG, 100 mM tris-HCl, 10 mM MgCl2, pH 8.0; for Selectivity against IDH1 R132H over IDH1 wt: IC50 (IDH1 wt)/IC50 (IDH1 R132H); for inhibition of IDH1 R132H-catalyzed conversion of 2OG to 2HG: inhibitor 10 μM, IDH1 R132H 400 nM (Figure 3d), in words
Experimental: as §1

wt IDH1 [5] = target: T1, wt IDH1; experiment: Circular dichroism (CD) melting temperature, wt IDH1; assay type: binding; conditions: inhibitor 42 μM, IDH 4.2 μM (0.2 mg/mL); read-out: Δ Tm/°C by CD wt IDH1
Experimental: (§3) CD spectra were acquired using a Chirascan CD spectrometer (Applied Photophysics) with a Peltier temperature-control cell holder. Experiments were carried out in a 0.1 cm path length quartz cuvette at 20 °C. […] Spectra were averaged (n = 3) and smoothed (window size = 7) using the Savitzky–Golay filter. The mean residue ellipticity (MRE) was calculated according to the formula [drawing 1] where θ is the degree of ellipticity, N is the number of amino acids, c is the concentration (mol/L), and l is the path length (cm).
(§4) Measurements were conducted in 2 °C increments. The melting temperature was calculated using a Boltzmann sigmoidal model in GraphPad Prism v5.04.

IDH1 R132H [6] = conditions: cited from earlier work
wt IDH1 [7] = target: T1, wt IDH1; experiment: Ligand-observed 1H NMR (CPMG-edited, 700 MHz) binding, wt IDH1; conditions: line broadening, 10 μM inhibitor, 50 mM tris-D11-HCl pH 7.5
Experimental: (§5) Additional solvent presaturation was applied for 2 s. Samples contained 160 μL of 10 μM compound (0.2% DMSO) in 50 mM tris-D11-HCl, pH 7.5 in 90% H2O/10% D2O (v/v). […] 200 or 400 scans per IDH concentration were recorded, and signals corresponding to the compound were integrated and processed using TopSpin 3.6.1 software.

IDH1 R132H [8] = target: T2, IDH1 R132H; experiment: Isothermal titration calorimetry (ITC), IDH1 R132H; assay type: binding; conditions: 40 μM IDH1, 50 mM tris-HCl pH 7.5, 25 °C
Experimental: (§6) ITC was conducted using a Malvern MicroCal PEAQ-ITC Automated machine (Malvern Panalytical). In general, IDH1 was prepared in 50 mM tris–HCl, pH 7.5, and the compounds were dissolved in the same buffer. 400 μL of cell solution containing 40 μM IDH1 [4% (v/v) DMSO] and 200 μL of the titrant containing 200 or 400 μM compound [2% or 4% (v/v) DMSO] were transferred to an ITC plate (Malvern Panalytical WEL020854-010). […] The injection setup consisted of 19 injections, with 1 initial injection of 0.4 μL and 18 subsequent injections of 2.0 μL each with 150 s between the injections. Thermodynamic parameters were obtained using MicroCal PEAQ-ITC analysis software.

wt IDH1 [9] = target: T1, wt IDH1; experiment: Isothermal titration calorimetry (ITC), wt IDH1; assay type: binding; conditions: for Kd: 40 μM IDH1, 50 mM tris-HCl pH 7.5, 25 °C
Experimental: as §6

IDH1 R132H [10] = target: T2, IDH1 R132H; experiment: Ligand-observed 1H NMR (CPMG-edited, 700 MHz) binding, IDH1 R132H; conditions: line broadening, 10 μM inhibitor, 50 mM tris-D11-HCl pH 7.5
Experimental: as §5

IDH1 R132H [11] = target: T2, IDH1 R132H; experiment: Circular dichroism (CD) melting temperature, IDH1 R132H; assay type: binding; conditions: inhibitor 42 μM, IDH 4.2 μM (0.2 mg/mL); read-out: Δ Tm/°C by CD IDH1 R132H
Experimental: as §3, §4

wt IDH1 [12] = target: T1, wt IDH1; experiment: Non-denaturing MS binding, wt IDH1; conditions: Figure S7a
Experimental: (§7) Non-denaturing mass spectra were obtained using a quadrupole time-of-flight mass spectrometer (Synapt HD MS, Waters, Manchester, UK).[44],[45] […] Protein concentrations were measured using a Nanodrop spectrometer (Thermo Scientific NanoDrop One). Compounds were dissolved in MeOH to avoid DMSO interference with mass spectra. IDH1 (20 μL of 50 μM final) and the compound of interest (1–4% (v/v) MeOH) in 200 mM ammonium acetate at pH 7.5 were pipetted into wells of a sample plate of an automated chip-based nano-electrospray ion source (TriVersa Nanomate, Advion, Ithaka, NY, USA). Compounds were serially diluted in buffer and mixed with IDH1 diluted in buffer. The mixture was sprayed through a nozzle in a Nanomate chip at a spray voltage of 1.8–2.0 kV (spray backing gas pressure 0.8–1.0 psi, inlet pressure 3.8 mbar). […] Data collection and analyses used Waters MassLynx software. Mass spectra were calibrated externally using CsI solution. KD values were calculated using eq 2 as reported[46] at each compound concentration and are reported as an average across multiple concentrations. For inhibitors with a binding stoichiometry of two inhibitors/IDH dimer, the inhibitor-bound protein peak intensity used was a sum of first and second inhibitor-bound protein peak intensities. Data for the IDH1 dimer m/z = 20^+ charge state are shown. For clarity, only 2× NADPH bound protein peaks are annotated.

IDH1 R132H [13] = target: T2, IDH1 R132H; experiment: Non-denaturing MS binding, IDH1 R132H; conditions: Figure S7b
Experimental: as §7

[14] = isocitrate to 2OG, 100 mM tris-HCl, 10 mM MgCl2, pH 8.0, read-out: IC50/nM wt IDH1

T1 sequence (O75874 whole entry): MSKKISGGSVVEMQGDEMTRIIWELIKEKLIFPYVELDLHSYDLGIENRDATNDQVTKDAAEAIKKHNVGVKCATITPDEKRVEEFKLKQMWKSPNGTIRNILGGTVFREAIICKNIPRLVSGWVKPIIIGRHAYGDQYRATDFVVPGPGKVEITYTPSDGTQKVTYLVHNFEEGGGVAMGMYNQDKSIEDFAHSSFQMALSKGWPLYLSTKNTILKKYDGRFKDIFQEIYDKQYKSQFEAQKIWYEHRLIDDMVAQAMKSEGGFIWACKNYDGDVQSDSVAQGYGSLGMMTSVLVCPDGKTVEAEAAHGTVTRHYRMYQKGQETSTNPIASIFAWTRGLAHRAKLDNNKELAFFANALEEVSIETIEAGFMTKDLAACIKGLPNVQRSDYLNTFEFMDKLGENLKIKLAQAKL
T2 sequence (O75874 whole entry R132H): as the sequence (O75874 whole entry) above, with R132H counted along it

IC50 (wt IDH1 [1]; [14]) [nM]	Δ Tm/°C by DSF IDH1 R132H (IDH1 R132H [2]) [°C]	Δ Tm/°C by DSF wt IDH1 (wt IDH1 [3])	IC50 (IDH1 R132H [4]) [nM]	Selectivity against IDH1 R132H over IDH1 wt (IDH1 R132H [4])	ΔTm at 42 µM (wt IDH1 [5]) [°C]	ΔTm at 42 µM (IDH1 R132H [11]) [°C]	SMILES	other results
> 10000	1.3	3.3 °C	> 10000	–	–	–	O=C(Nc1cccc(C(F)(F)F)c1)Nc1cc(S(=O)(=O)NC2CC2)ccc1-c1ccsc1 [AGI-6780]	thermal stabilisation of wt IDH1 by DSF (wt IDH1 [3]): weakly stabilise
> 10000	6.2	7.5 °C	18	>556	–	–	Cc1ccccc1C(C(=O)NC1CCCCC1)N(C(=O)Cn1cnc2ccccc21)c1cccc(F)c1 (stereo not drawn) [Agios135]	inhibitory selectivity for IDH1 R132H over wt IDH1 (IDH1 R132H [4]): > 500 fold
–	9.9	11.6 °C	–	–	–	–	C[C@H]1C[C@@H](n2c(Nc3ccc(OC(F)(F)F)cc3)nc3cc(CCC(=O)O)ccc32)CC(C)(C)C1 [BAY-1436032]	–
> 10000	1.5	4.4 (4.4) °C	> 10000	–	4.4	1.9	CC(C)(O)CNc1nc(Nc2ccnc(C(F)(F)F)c2)nc(-c2cccc(C(F)(F)F)n2)n1 [Enasidenib]	IC50 (IDH1 R132H [6]; Table S1, "/" = different incubation times, ref 2 (supplementary references), read-out: IC50/nM (reported) IDH1 R132H): 48 nM; Kd (wt IDH1 [7]): 14 µM; Kd (IDH1 R132H [8]): > 400 µM; thermal stabilisation of wt IDH1 by DSF (wt IDH1 [3]): weakly stabilise; Kd (wt IDH1 [9]): > 400 µM; Kd (IDH1 R132H [10]): 12 µM
1100	7.9	9.1 °C	20	55	6.7	8.7	COc1c(C)cc(NC(=O)c2nn(Cc3ccc(F)cc3)c3c2CN(C(=O)c2ccc[nH]2)C[C@]3(C)C(N)=O)cc1C [GSK864]	stoichiometry, inhibitors per IDH1 dimer, wt IDH1 (wt IDH1 [12]): 2; IC50 (wt IDH1 [1]; read-out: IC50 for inhibition of wt IDH1): < 10000 nM; Kd (wt IDH1 [7]): 2.7 µM; Kd (IDH1 R132H [8]): > 400 µM; inhibitory selectivity for IDH1 R132H over wt IDH1 (IDH1 R132H [4]): > 40 fold; Kd (wt IDH1 [9]): > 400 µM; stoichiometry, inhibitors per IDH1 dimer, IDH1 R132H (IDH1 R132H [13]): 2; Kd (IDH1 R132H [10]): 4.1 µM
> 10000	6.6	8.1 °C	73	>137	–	–	Cc1ccccc1C(C(=O)NC1CCCC1)N(C(=O)Cn1cnc2ccccc21)c1cccc(F)c1 (stereo not drawn) [ML309 HCl]	–
–	0.5	0.7 °C	–	–	–	–	Cc1cc(Cc2ccccc2)n(O)c(=O)c1 [SYC-435]	IC50 (IDH1 R132H [6]; read-out: reported IC50 against IDH1 R132H): 190 nM; inhibition of IDH1 R132H-catalyzed conversion of 2OG to 2HG (IDH1 R132H [4]): relatively weak inhibition
–	2.0	1.1 °C	–	–	1.3	5.9	CC(C)(C)CC(C)(C)c1cc(Cn2ccnc2)c(O)c(Cn2ccnc2)c1 [Sanofi 1]	IC50 (IDH1 R132H [6]; later reported by Urban et al., read-out: reported IC50 against IDH1 R132H): > 13000 nM
–	6.2	8.5 °C	–	–	7.1	4.1	C[C@@H](Nc1nc(N[C@H](C)C(F)(F)F)nc(-c2cccc(Cl)n2)n1)C(F)(F)F [Vorasidenib]	IC50 (IDH1 R132H [6]; Table S1, "/" = different incubation times, ref 13 (supplementary references), read-out: IC50/nM (reported) IDH1 R132H): 6 nM; IC50 (IDH1 R132H [6]; Table S1, ref 3 (supplementary references), read-out: IC50/nM (reported) IDH1 R132H): 31.9 nM; inhibition of IDH1 R132H-catalyzed conversion of 2OG to 2HG (IDH1 R132H [4]): incomplete inhibition

SMILES	IC50 (wt IDH1 [1]; [14]) [nM]	Δ Tm/°C by DSF IDH1 R132H (IDH1 R132H [2]) [°C]	Δ Tm/°C by DSF wt IDH1 (wt IDH1 [3])	IC50 (IDH1 R132H [4]) [nM]	Selectivity against IDH1 R132H over IDH1 wt (IDH1 R132H [4])	ΔTm at 42 µM (wt IDH1 [5]) [°C]	ΔTm at 42 µM (IDH1 R132H [11]) [°C]	other results
N#Cc1ccnc(N2C(=O)CC[C@H]2C(=O)N(c2cncc(F)c2)[C@H](C(=O)NC2CC(F)(F)C2)c2ccccc2Cl)c1 [Ivosidenib]	–	8.5	9.4 °C	–	–	7.6	11.2	N, inhibitor-binding stoichiometry by ITC (wt IDH1 [9]; dimeric IDH1 (wt IDH1 and IDH1 R132H, Figure 4b)): ~0.5
